# From US20240116988A1, “ANTI-ROR1 MACROCYCLIC PEPTIDES AND COMPOSITIONS” (BRISTOL-MYERS SQUIBB COMPANY, priority 2022, published 2024)
# Starred links: 1 amine or outer side, 2 acyl side, 3 side chain; linkers in the order of their positions; H or OH if unused. Positions of bridges follow the written chain, without caps; N, C: chain ends. Non-standard residues stand in square brackets, D forms with d. Residues, ends and D or L forms follow the SMILES beside them. ξ: configuration not given here. X1 = CC(C)[C@H](CC(=O)[C@@H](N[*:1])C(C)C)C(=O)[*:2]; NMeF = CN[C@@H](Cc1ccccc1)C(=O)O; NMeNle = CCCC[C@H](NC)C(=O)O; NMeA = CN[C@@H](C)C(=O)O; ξD = NC(CC(=O)O)C(=O)O
# Target: T1, human ROR1 (Homo sapiens, UniProt Q01973)
# T1 construct: host or cells: HEK 293T cells, Tet-on system induced with doxycycline
# Test: ROR1 high content cell-based binding assay
# Conditions: read-out: ROR1 Binding 293T Human HC Cell Based Assay IC50
# Method: ROR1 high content cell-based binding assay: Human embryonic kidney 293T cells (293T) expressing human ROR1 with Tet-on system by doxycycline were used (Arctic-488134) for the assessment of inhibition of the binding of fluorescently-labeled competing peptide (“Probe”) that specifically binds to human ROR1. […] Cryopreserved vials were thawed in a 37° C. water bath. Cells were washed in assay culture media [DMEM (Life Technologies Inc. Cat. […] Cat. No. 15140-122) and […] dox] and diluted 1.0×10^5 cells/mL. Cells were seeded into PDL-coated 384 well plates (BD Falcon Cat. No. 356663) at 2,000 cells/20 μL. Plates were allowed to incubate for 10 minutes at room temperature and then transferred to a 37° C./5% CO2 incubator for overnight incubation. The next day, 125 nL of the test compound was added using an ECHO followed by the addition of 5 μL/well of 5-FAM-labeled probe to cells at a final concentration of 30 nM. Sample were incubated for 1 hour at 37° C. for 1 hour, followed by 3 washes in […] of dPBS. Cells were fixed by adding 8% (w/v) formaldehyde (Sigma Cat. No. 252549), 20 μg/mL Hoechst (Thermo Scientific Cat. No. 62249) in PBS for 20 minutes at room temperature. The plates were washed 3 more times in dPBS and 15 μl of PBS was left in the wells following the last wash. The plates were sealed, and data was using obtained using a CellInsight NXT High Content Screening Platform IC903000 (Thermo Scientific).
# T1 sequence (Q01973 30-937): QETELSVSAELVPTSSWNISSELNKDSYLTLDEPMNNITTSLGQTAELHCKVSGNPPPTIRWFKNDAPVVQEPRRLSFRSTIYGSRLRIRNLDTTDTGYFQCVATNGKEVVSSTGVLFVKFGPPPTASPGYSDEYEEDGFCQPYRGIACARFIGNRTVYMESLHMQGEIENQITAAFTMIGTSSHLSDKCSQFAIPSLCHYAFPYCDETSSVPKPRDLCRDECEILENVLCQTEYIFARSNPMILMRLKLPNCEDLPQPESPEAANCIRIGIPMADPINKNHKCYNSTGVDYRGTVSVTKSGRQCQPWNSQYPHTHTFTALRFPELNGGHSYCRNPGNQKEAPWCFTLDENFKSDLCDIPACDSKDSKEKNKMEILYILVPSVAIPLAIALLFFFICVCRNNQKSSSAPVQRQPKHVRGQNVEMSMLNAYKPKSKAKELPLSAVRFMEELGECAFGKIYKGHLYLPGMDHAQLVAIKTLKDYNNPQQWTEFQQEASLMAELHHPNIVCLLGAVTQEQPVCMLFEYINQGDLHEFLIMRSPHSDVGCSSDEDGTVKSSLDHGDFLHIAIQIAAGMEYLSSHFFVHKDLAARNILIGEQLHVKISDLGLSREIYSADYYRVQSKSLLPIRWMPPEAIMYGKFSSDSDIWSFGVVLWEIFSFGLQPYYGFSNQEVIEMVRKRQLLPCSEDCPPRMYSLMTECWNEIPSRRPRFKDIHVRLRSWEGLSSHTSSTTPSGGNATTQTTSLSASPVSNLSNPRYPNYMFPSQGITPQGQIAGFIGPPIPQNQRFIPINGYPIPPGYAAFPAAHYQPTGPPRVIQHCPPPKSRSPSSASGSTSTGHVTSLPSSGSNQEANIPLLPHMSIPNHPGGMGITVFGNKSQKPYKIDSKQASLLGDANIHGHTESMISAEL
row,SMILES,IC50
1,CC(C)C[C@@H]1NC(=O)[C@H](Cc2c[nH]c3ccccc23)NC(=O)[C@H](Cc2ccc(O)cc2)NC(=O)[C@H](Cc2c[nH]c3ccccc23)NC(=O)CNC(=O)[C@H](CO)NC(=O)[C@H](Cc2ccc(O)cc2)NC(=O)[C@H](C(C)C)NC(=O)[C@@H]2CCCN2C(=O)[C@H](Cc2ccc(O)cc2)NC(=O)[C@H](Cc2ccccc2)NC(=O)CSC[C@@H](C(=O)NCC(N)=O)NC1=O [Example 1001] ({CH2CO}-FYPVYSGWYWLCG-NH2; thioether N-12),0.049 µM
2,CCCC[C@H]1C(=O)N[C@H](C(=O)NCC(N)=O)CSCC(=O)N[C@@H](Cc2ccccc2)C(=O)N[C@@H](Cc2ccc(O)cc2)C(=O)N[C@@H](Cc2c[nH]c3ccccc23)C(=O)N[C@@H](CO)C(=O)N[C@@H](CO)C(=O)N[C@@H](CCCNC(=N)N)C(=O)N(C)[C@@H](C)C(=O)N[C@@H](Cc2c[nH]c3ccccc23)C(=O)N[C@@H](Cc2ccc(O)cc2)C(=O)N[C@@H](CC(C)C)C(=O)N1C [Example 1003] ({CH2CO}-FYWSSR[NMeA]WYL[NMeNle]CG-NH2; thioether N-12),0.008 µM
3,CC(C)C[C@@H]1NC(=O)[C@H](Cc2c[nH]c3ccccc23)NC(=O)[C@H](Cc2ccccc2)NC(=O)[C@H](Cc2c[nH]c3ccccc23)NC(=O)CNC(=O)[C@H](CO)NC(=O)[C@H](Cc2ccc(O)cc2)NC(=O)[C@H](C(C)C)NC(=O)[C@H](CCCNC(=N)N)NC(=O)[C@H](Cc2ccccc2)NC(=O)[C@H](Cc2ccccc2)NC(=O)CSC[C@@H](C(=O)NCC(N)=O)NC1=O [Example 1006] ({CH2CO}-FFRVYSGWFWLCG-NH2; thioether N-12),0.147 µM
4,CC[C@H](C)[C@@H]1NC(=O)[C@H](Cc2ccccc2)NC(=O)CSC[C@@H](C(=O)NCC(N)=O)NC(=O)[C@H](C)NC(=O)[C@H](Cc2ccccc2)NC(=O)[C@H](Cc2ccc(O)cc2)NC(=O)[C@H](Cc2c[nH]c3ccccc23)NC(=O)CNC(=O)[C@H](CCC(=O)O)NC(=O)[C@H](Cc2ccc(O)cc2)NC(=O)[C@H](C(C)C)NC(=O)[C@H](Cc2c[nH]c3ccccc23)NC1=O [Example 1008] ({CH2CO}-FIWVYEGWYFACG-NH2; thioether N-12),0.036 µM
5,CC(C)C[C@@H]1NC(=O)[C@H](Cc2c[nH]c3ccccc23)NC(=O)[C@H](Cc2ccccc2)NC(=O)[C@H](Cc2c[nH]c3ccccc23)NC(=O)CNC(=O)CNC(=O)[C@H](CC(C)C)NC(=O)[C@H](C(C)C)NC(=O)[C@H](CC(C)C)NC(=O)[C@H](Cc2ccc(O)cc2)NC(=O)[C@H](Cc2ccccc2)NC(=O)CSC[C@@H](C(=O)NCC(N)=O)NC1=O [Example 1010] ({CH2CO}-FYLVLGGWFWLCG-NH2; thioether N-12),0.821 µM
6,CC(C)C[C@@H]1NC(=O)[C@H](Cc2c[nH]c3ccccc23)NC(=O)[C@H](Cc2ccccc2)NC(=O)[C@H](Cc2c[nH]c3ccccc23)NC(=O)CNC(=O)[C@H](CO)NC(=O)[C@H](Cc2ccc(O)cc2)NC(=O)[C@H](C(C)C)NC(=O)[C@H](CCCNC(=N)N)NC(=O)[C@H](Cc2ccccc2)NC(=O)[C@H](Cc2ccccc2)NC(=O)CSC[C@@H](C(N)=O)NC1=O [Example 1014] ({CH2CO}-FFRVYSGWFWLC-NH2; thioether N-12),0.707 µM
7,CC(C)C[C@@H]1NC(=O)[C@H](Cc2ccc(O)cc2)NC(=O)[C@H](Cc2ccccc2)NC(=O)CSC[C@@H](C(=O)NCC(N)=O)NC(=O)[C@H](CC(C)C)NC(=O)[C@H](Cc2ccccc2)N(C)C(=O)[C@H](Cc2ccc(O)cc2)NC(=O)[C@H](Cc2c[nH]c3ccccc23)NC(=O)CNC(=O)[C@H](CCCNC(=N)N)NC(=O)[C@H](Cc2ccc(O)cc2)NC(=O)[C@H](C(C)C)NC1=O [Example 1018] ({CH2CO}-FYLVYRGWY[NMeF]LCG-NH2; thioether N-12),0.03 µM

# The remaining compounds from weak to strong by IC50, led by results:
row,IC50,SMILES
1,0.637 µM,CC(C)C[C@@H]1NC(=O)[C@H](Cc2ccccc2)NC(=O)CSC[C@@H](C(=O)NCC(N)=O)NC(=O)[C@H](C)NC(=O)[C@H](Cc2c[nH]c3ccccc23)NC(=O)[C@H](Cc2ccc(O)cc2)NC(=O)[C@H](Cc2c[nH]c3ccccc23)NC(=O)[C@H](Cc2c[nH]c3ccccc23)NC(=O)[C@H](CCC(=O)O)NC(=O)[C@H](Cc2ccc(O)cc2)NC(=O)[C@H](C(C)C)NC(=O)[C@H](Cc2c[nH]c3ccccc23)NC1=O [Example 1013] ({CH2CO}-FLWVYEWWYWACG-NH2; thioether N-12)
2,0.168 µM,CC(C)C[C@@H]1NC(=O)[C@H](Cc2c[nH]c3ccccc23)NC(=O)[C@H](Cc2ccccc2)NC(=O)[C@H](Cc2c[nH]c3ccccc23)NC(=O)CNC(=O)[C@H](CC(=O)O)NC(=O)[C@H](CCCNC(=N)N)NC(=O)[C@H](C(C)C)CC(=O)[C@H](C(C)C)NC(=O)[C@H](Cc2ccc(O)cc2)NC(=O)[C@H](Cc2ccccc2)NC(=O)CSC[C@@H](C(=O)NCC(N)=O)NC1=O [Example 1011] ({CH2CO}-FY[X1]RDGWFWLCG-NH2; thioether N-11)
3,0.099 µM,CC(C)C[C@@H]1NC(=O)[C@H](Cc2ccccc2)NC(=O)CSC[C@@H](C(=O)NCC(N)=O)NC(=O)[C@H](C)NC(=O)[C@H](Cc2c[nH]c3ccccc23)NC(=O)[C@H](Cc2ccccc2)NC(=O)[C@H](Cc2c[nH]c3ccccc23)NC(=O)CNC(=O)[C@H](Cc2ccc(O)cc2)NC(=O)[C@H](CCCNC(=N)N)NC(=O)[C@H](C(C)C)NC(=O)[C@H](Cc2c[nH]c3ccccc23)NC1=O [Example 1004] ({CH2CO}-FLWVRYGWFWACG-NH2; thioether N-12)
4,0.054 µM,CC(C)C[C@@H]1NC(=O)[C@H](Cc2c[nH]c3ccccc23)NC(=O)[C@H](Cc2ccc(O)cc2)NC(=O)[C@H](Cc2c[nH]c3ccccc23)NC(=O)CNC(=O)C(CC(=O)O)NC(=O)[C@H](Cc2ccc(O)cc2)NC(=O)[C@H](C(C)C)NC(=O)[C@@H]2CCCN2C(=O)[C@H](Cc2ccc(O)cc2)NC(=O)[C@H](Cc2ccccc2)NC(=O)CSC[C@@H](C(=O)NCC(N)=O)NC1=O (some centres unmarked) [Example 1009] ({CH2CO}-FYPVY[ξD]GWYWLCG-NH2; thioether N-12)
5,0.036 µM,CC(C)C[C@@H]1NC(=O)[C@H](Cc2c[nH]c3ccccc23)NC(=O)[C@H](Cc2ccccc2)NC(=O)[C@H](Cc2c[nH]c3ccccc23)NC(=O)CNC(=O)[C@H](CO)NC(=O)[C@H](Cc2ccc(O)cc2)NC(=O)[C@H](C(C)C)NC(=O)[C@@H]2CCCN2C(=O)[C@H](Cc2ccc(O)cc2)NC(=O)[C@H](Cc2ccccc2)NC(=O)CSC[C@@H](C(=O)NCC(N)=O)NC1=O [Example 1012] ({CH2CO}-FYPVYSGWFWLCG-NH2; thioether N-12)
6,0.03 µM,CC(C)C[C@@H]1NC(=O)[C@H](Cc2ccccc2)NC(=O)CSC[C@@H](C(=O)NCC(N)=O)NC(=O)[C@H](C)NC(=O)[C@H](Cc2ccc(O)cc2)NC(=O)[C@H](Cc2ccc(O)cc2)NC(=O)[C@H](Cc2c[nH]c3ccccc23)NC(=O)CNC(=O)[C@H](Cc2ccc(O)cc2)NC(=O)[C@H](CCCNC(=N)N)NC(=O)[C@H](C(C)C)NC(=O)[C@H](Cc2c[nH]c3ccccc23)NC1=O [Example 1005] ({CH2CO}-FLWVRYGWYYACG-NH2; thioether N-12)
7,0.017 µM,CC(C)C[C@@H]1NC(=O)[C@H](Cc2ccc(O)cc2)NC(=O)[C@H](Cc2ccccc2)NC(=O)CSC[C@@H](C(=O)NCC(N)=O)NC(=O)[C@H](CC(C)C)NC(=O)[C@H](Cc2ccccc2)N(C)C(=O)[C@H](Cc2ccc(O)cc2)NC(=O)[C@H](Cc2c[nH]c3ccccc23)NC(=O)CNC(=O)[C@H](Cc2cnc[nH]2)NC(=O)[C@H](Cc2ccc(O)cc2)NC(=O)[C@H](C(C)C)NC1=O [Example 1015] ({CH2CO}-FYLVYHGWY[NMeF]LCG-NH2; thioether N-12)
8,0.014 µM,CC(C)C[C@@H]1NC(=O)[C@H](Cc2ccc(O)cc2)NC(=O)[C@H](Cc2ccccc2)NC(=O)CSC[C@@H](C(=O)NCC(N)=O)NC(=O)[C@H](CC(C)C)NC(=O)[C@H](Cc2ccccc2)N(C)C(=O)[C@H](Cc2ccc(O)cc2)NC(=O)[C@H](Cc2c[nH]c3ccccc23)NC(=O)CNC(=O)[C@H](CC(=O)O)NC(=O)[C@H](Cc2ccc(O)cc2)NC(=O)[C@H](C(C)C)NC1=O [Example 1017] ({CH2CO}-FYLVYDGWY[NMeF]LCG-NH2; thioether N-12)
9,0.011 µM,CC(C)C[C@@H]1NC(=O)[C@H](Cc2c[nH]c3ccccc23)NC(=O)[C@H](C(C)C)NC(=O)CNC(=O)[C@H](CO)NC(=O)[C@H](Cc2ccccc2)N(C)C(=O)[C@H](Cc2ccc(O)cc2)NC(=O)[C@H](Cc2ccc(O)cc2)NC(=O)[C@@H](Cc2ccccc2)NC(=O)CSC[C@@H](C(=O)NCC(N)=O)NC(=O)[C@H](C(C)C)NC(=O)[C@H](Cc2ccc(O)cc2)NC1=O [Example 1000] ({CH2CO}-[dF]YY[NMeF]SGVWLYVCG-NH2; thioether N-12)
10,0.007 µM,CC(C)C[C@@H]1NC(=O)[C@H](Cc2ccc(O)cc2)NC(=O)[C@H](Cc2ccccc2)NC(=O)CSC[C@@H](C(=O)NCC(N)=O)NC(=O)[C@H](CC(C)C)NC(=O)[C@H](Cc2ccccc2)N(C)C(=O)[C@H](Cc2ccc(O)cc2)NC(=O)[C@H](Cc2c[nH]c3ccccc23)NC(=O)CNC(=O)[C@H](CCC(N)=O)NC(=O)[C@H](Cc2ccc(O)cc2)NC(=O)[C@H](C(C)C)NC1=O [Example 1016] ({CH2CO}-FYLVYQGWY[NMeF]LCG-NH2; thioether N-12)
